ChEMBL document CHEMBL1806384, “Identification of benzofuran-4,5-diones as novel and selective non-hydroxamic acid, non-peptidomimetic based inhibitors of human peptide deformylase” (Bioorg Med Chem Lett, 2011)
pIC50: −log10 of the molar value. Converted amounts (≈) assume the structure as drawn.

Key:
MOLT-3 = assay: Cytotoxicity against human MOLT3 cells; type: functional, cell-based
[1] = biological target: T1, Interstitial collagenase (Homo sapiens) (UniProt P03956); assay: Inhibition of human recombinant MMP1 at 100 uM after 1 hr by fluorescence polarization based competition assay
T1 sequence (whole entry): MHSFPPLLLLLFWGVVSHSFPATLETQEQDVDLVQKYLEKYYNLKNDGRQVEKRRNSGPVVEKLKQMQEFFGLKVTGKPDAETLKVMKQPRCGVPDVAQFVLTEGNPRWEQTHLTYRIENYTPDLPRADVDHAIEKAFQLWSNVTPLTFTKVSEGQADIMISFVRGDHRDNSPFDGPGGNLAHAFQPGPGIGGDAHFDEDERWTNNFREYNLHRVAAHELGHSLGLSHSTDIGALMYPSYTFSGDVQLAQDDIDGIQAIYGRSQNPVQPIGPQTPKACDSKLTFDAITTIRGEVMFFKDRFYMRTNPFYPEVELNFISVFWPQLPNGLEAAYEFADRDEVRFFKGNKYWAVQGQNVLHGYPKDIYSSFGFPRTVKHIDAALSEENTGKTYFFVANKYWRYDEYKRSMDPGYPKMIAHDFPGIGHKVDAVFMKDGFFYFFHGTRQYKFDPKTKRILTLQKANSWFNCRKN

Jurkat = assay: Cytotoxicity against human Jurkat cells; type: functional, cell-based
HL-60 [2] = assay: Cytotoxicity against human vincristine-resistant HL60 cells; type: functional, cell-based
HL-60 [3] = assay: Cytotoxicity against human HL60 cells; type: functional, cell-based
[4] = Cytotoxicity against human ALL3 cells; type: functional, cell-based
[5] = Cytotoxicity against human CWR22 cells; type: functional, cell-based
[6] = biological target: T2, Peptide deformylase (Escherichia coli) (UniProt Q9JN24); assay: Inhibition of Escherichia coli peptide deformylase at 100 uM after 1 hr by fluorescence polarization based competition assay
T2 sequence (whole entry): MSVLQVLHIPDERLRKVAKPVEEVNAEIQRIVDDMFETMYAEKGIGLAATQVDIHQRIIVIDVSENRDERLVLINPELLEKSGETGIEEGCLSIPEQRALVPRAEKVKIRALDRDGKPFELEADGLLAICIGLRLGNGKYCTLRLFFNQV

Peptide deformylase = biological target: T3, Peptide deformylase (Escherichia coli, UniProt Q9JN24); assay: Inhibition of Escherichia coli peptide deformylase after 1 hr by fluorescence polarization based competition assay
T3 sequence (Q9JN24 whole entry): T2 sequence (whole entry)

[7] = biological target: T4, Peptide deformylase, mitochondrial (Homo sapiens) (UniProt Q9HBH1); assay: Inhibition of human peptide deformylase at 100 uM after 1 hr by fluorescence polarization based competition assay
T4 sequence (whole entry): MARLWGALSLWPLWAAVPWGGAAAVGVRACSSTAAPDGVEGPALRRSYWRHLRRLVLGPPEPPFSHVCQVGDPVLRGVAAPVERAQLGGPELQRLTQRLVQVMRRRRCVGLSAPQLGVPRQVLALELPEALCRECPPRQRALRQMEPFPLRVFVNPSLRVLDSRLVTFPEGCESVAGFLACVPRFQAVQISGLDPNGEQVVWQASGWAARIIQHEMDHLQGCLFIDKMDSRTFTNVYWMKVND

[8] = biological target: T5, Peptide deformylase, mitochondrial (Homo sapiens, UniProt Q9HBH1); assay: Inhibition of human peptide deformylase after 1 hr by fluorescence polarization based competition assay
T5 sequence (Q9HBH1 whole entry): T4 sequence (whole entry)

HEK293 = assay: Cytotoxicity against human HEK293 cells; type: cell-based
[9] = biological target: T6, Aminopeptidase N (Sus scrofa) (UniProt P15145); assay: Inhibition of porcine kidney microsomal aminopeptidase N at 100 uM after 1 hr by fluorescence polarization based competition assay
T6 sequence (whole entry): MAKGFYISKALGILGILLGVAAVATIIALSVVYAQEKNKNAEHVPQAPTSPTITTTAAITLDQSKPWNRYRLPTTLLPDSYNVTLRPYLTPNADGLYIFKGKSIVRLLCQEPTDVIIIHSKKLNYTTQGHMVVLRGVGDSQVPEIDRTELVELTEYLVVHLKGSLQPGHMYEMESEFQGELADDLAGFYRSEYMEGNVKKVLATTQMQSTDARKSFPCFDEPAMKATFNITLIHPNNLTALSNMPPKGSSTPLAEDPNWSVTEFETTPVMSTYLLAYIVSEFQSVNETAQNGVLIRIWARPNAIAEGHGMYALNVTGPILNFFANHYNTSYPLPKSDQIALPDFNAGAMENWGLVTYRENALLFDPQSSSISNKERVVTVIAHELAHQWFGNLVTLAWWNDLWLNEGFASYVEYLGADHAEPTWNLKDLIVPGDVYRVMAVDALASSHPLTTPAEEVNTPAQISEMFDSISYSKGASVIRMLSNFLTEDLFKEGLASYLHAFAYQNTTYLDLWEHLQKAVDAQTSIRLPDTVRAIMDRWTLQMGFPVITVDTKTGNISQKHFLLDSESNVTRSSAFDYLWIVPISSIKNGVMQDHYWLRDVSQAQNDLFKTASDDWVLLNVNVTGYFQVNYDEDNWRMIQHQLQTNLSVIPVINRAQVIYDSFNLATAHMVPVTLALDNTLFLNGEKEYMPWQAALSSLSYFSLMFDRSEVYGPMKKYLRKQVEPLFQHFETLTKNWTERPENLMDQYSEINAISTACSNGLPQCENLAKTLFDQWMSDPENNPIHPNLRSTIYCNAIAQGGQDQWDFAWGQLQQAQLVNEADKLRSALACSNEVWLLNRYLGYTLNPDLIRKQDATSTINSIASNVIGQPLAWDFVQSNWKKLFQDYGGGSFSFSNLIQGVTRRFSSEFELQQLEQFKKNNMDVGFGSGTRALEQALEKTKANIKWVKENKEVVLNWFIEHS

[10] = Cytotoxicity against human Meso47 cells; type: functional, cell-based
[11] = biological target: T4, Peptide deformylase, mitochondrial (Homo sapiens); assay: Inhibition of human peptide deformylase at 10 uM after 1 hr by fluorescence polarization based competition assay
Haemophilus influenzae = assay: Antibacterial activity against Haemophilus influenzae ATCC 49766; type: functional
Citrobacter freundii = assay: Antibacterial activity against Citrobacter freundii ATCC 8090; type: functional
Bacteroides fragilis = assay: Antibacterial activity against Bacteroides fragilis ATCC 25285; type: functional
Enterococcus faecalis = assay: Antibacterial activity against Enterococcus faecalis ATCC 29212; type: functional
Cutibacterium acnes = assay: Antibacterial activity against Propionibacterium acnes ATCC 11827; type: functional
[12] = tested on: Staphylococcus epidermidis; assay: Antibacterial activity against Staphylococcus epidermidis ATCC 12228; type: functional
Staphylococcus aureus = assay: Antibacterial activity against Staphylococcus aureus ATCC 29213; type: functional
Streptococcus pyogenes = assay: Antibacterial activity against Streptococcus pyogenes ATCC 19615; type: functional
Escherichia coli = assay: Antibacterial activity against Escherichia coli ATCC 25922; type: functional
Enterococcus faecium = assay: Antibacterial activity against Enterococcus faecium ATCC 19434; type: functional
Candida albicans = assay: Antifungal activity against Candida albicans ATCC 90028; type: functional
Y79 = assay: Cytotoxicity against human Y79 cells; type: functional, cell-based
Streptococcus pneumoniae = assay: Antibacterial activity against Streptococcus pneumoniae ATCC 6301; type: functional
Enterobacter cloacae = assay: Antibacterial activity against Enterobacter cloacae ATCC 13047; type: functional

inhibition [11] [%]	SMILES	pIC50 (MOLT-3)	inhibition [1] [%]	pIC50 (Jurkat)	pIC50 (HL-60 [2])	pIC50 (HL-60 [3])	pIC50 [4]	pIC50 [5]	inhibition [6] [%]	pIC50 (Peptide deformylase)	inhibition [7] [%]	pIC50 [8]	pIC50 (HEK293)	inhibition [9] [%]	pIC50 [10]	pIC50 (Y79)	also measured
	COc1ccc(C(=O)c2coc3c2C(=O)C(=O)C(Br)=C3Br)cc1	4.40	23	4.26	4.00	4.28	4.15	4.15	22	< 4.00	100	4.19	4.00	41	4.00		
81	Cc1ccc(C(=O)c2coc3c2C(=O)C(=O)C(Br)=C3)cc1																
	COc1ccc(C(=O)c2coc3c2C(=O)C(=O)C(Cl)=C3Cl)cc1OC		46		4.00				63		100	5.21	4.00	99			
	COc1cc(C(=O)c2coc3c2C(=O)C(=O)C(Cl)=C3Cl)cc(OC)c1OC	5.15	32	5.23	4.26	4.44	4.31		27	< 4.00	100	4.60		50	4.00		
	O=C(O)c1cn(C2CC2)c2cc(N3CCNCC3)c(F)cc2c1=O [CIPROFLOXACIN]																MIC (Haemophilus influenzae): ≤ 0.12 µg/mL; MIC (Citrobacter freundii): ≤ 0.12 µg/mL; MIC (Bacteroides fragilis): 4 µg/mL (≈ 12.1 µM); MIC (Enterococcus faecalis): 0.25 µg/mL (≈ 0.754 µM); MIC (Cutibacterium acnes): 0.25 µg/mL (≈ 0.754 µM); MIC [12]: ≤ 0.12 µg/mL; MIC (Staphylococcus aureus): 0.5 µg/mL (≈ 1.51 µM); MIC (Streptococcus pyogenes): 0.25 µg/mL (≈ 0.754 µM); MIC (Escherichia coli): ≤ 0.12 µg/mL; MIC (Enterococcus faecium): 4 µg/mL (≈ 12.1 µM); MIC (Candida albicans): > 64 µg/mL
	COc1ccc(C(=O)c2coc3c2C(=O)C(=O)C=C3)cc1	5.04	6	5.05	4.57	4.77	4.54	4.46	24	< 4.00	100	4.47	4.68	4	4.00	4.51	
	C[C@@H](O)[C@H]1C(=O)N2C(C(=O)O)=C(SCCNC=N)C[C@H]12 [IMIPENEM ANHYDROUS]																MIC (Haemophilus influenzae): 1 µg/mL (≈ 3.34 µM); MIC (Citrobacter freundii): 1 µg/mL (≈ 3.34 µM); MIC (Bacteroides fragilis): ≤ 0.12 µg/mL; MIC (Enterococcus faecalis): 0.5 µg/mL (≈ 1.67 µM); MIC (Cutibacterium acnes): ≤ 0.12 µg/mL; MIC (Streptococcus pneumoniae): ≤ 0.12 µg/mL; MIC [12]: ≤ 0.12 µg/mL; MIC (Staphylococcus aureus): ≤ 0.12 µg/mL; MIC (Streptococcus pyogenes): ≤ 0.12 µg/mL; MIC (Escherichia coli): ≤ 0.12 µg/mL; MIC (Enterococcus faecium): 2 µg/mL (≈ 6.68 µM); MIC (Enterobacter cloacae): 1 µg/mL (≈ 3.34 µM); MIC (Candida albicans): > 64 µg/mL
	COc1ccc(C(=O)c2coc3c2C(=O)C(=O)C=C3Cl)cc1	4.96	10	4.89		4.77	4.33	4.23	13	< 4.00	100	4.80	4.40	68	4.00	4.13	
	COc1ccc(C(=O)c2coc3c2C(=O)C(=O)C=C3Br)cc1	4.96	8	4.92	4.42	5.00	4.46	4.34	26	< 4.00	100	4.82		64	4.00	4.20	
90	COc1ccc(C(=O)c2coc3c2C(=O)C(=O)C(Br)=C3)cc1	5.40	26	4.70		4.32	4.32		5	< 4.00	100	4.49	4.27	22		4.00	
97	O=C1C(=O)c2c(C(=O)c3ccccc3)coc2C=C1Br																
	COc1ccc(C(=O)c2coc3c2C(=O)C(=O)C(Br)=C3Br)cc1OC	4.60	46	4.55	4.19	4.38	4.44	4.00	53	< 4.00	100	5.00	4.00	96	4.00	4.00	
75	CC(=O)C(C(C)=O)C1=C(Cl)C(=O)C(=O)c2c(C(=O)c3ccc(C)cc3)coc21																
	O=C1C=Cc2occ(C(=O)c3ccccc3)c2C1=O	5.14	0	5.09			4.66	4.52	32	< 4.00	100			5	4.20		
	COc1ccc(C(=O)c2coc3c2C(=O)C(=O)C(Cl)=C3Cl)cc1	5.39	0	5.21	4.37	5.00	4.57	4.30	1	< 4.00	88	4.82	4.52	50	4.00	4.18	MIC (Haemophilus influenzae): > 64 µg/mL; MIC (Citrobacter freundii): > 64 µg/mL; MIC (Bacteroides fragilis): > 64 µg/mL; MIC (Enterococcus faecalis): > 64 µg/mL; MIC (Cutibacterium acnes): > 64 µg/mL; MIC (Streptococcus pneumoniae): 16 µg/mL (≈ 45.6 µM); MIC [12]: > 64 µg/mL; MIC (Staphylococcus aureus): > 64 µg/mL; MIC (Streptococcus pyogenes): > 64 µg/mL; MIC (Escherichia coli): > 64 µg/mL; MIC (Enterococcus faecium): > 64 µg/mL; MIC (Enterobacter cloacae): > 64 µg/mL; MIC (Candida albicans): > 64 µg/mL

SMILES	inhibition [11] [%]	pIC50 (MOLT-3)	inhibition [1] [%]	pIC50 (Jurkat)	pIC50 (HL-60 [2])	pIC50 (HL-60 [3])	pIC50 [4]	pIC50 [5]	inhibition [6] [%]	pIC50 (Peptide deformylase)	inhibition [7] [%]	pIC50 [8]	pIC50 (HEK293)	inhibition [9] [%]	pIC50 [10]	pIC50 (Y79)	also measured
O=C1C(=O)c2c(C(=O)c3ccccc3)coc2C(Cl)=C1Cl	90	4.51	41		4.00		4.16	4.14	65	< 4.00	100		4.00	101	4.00	4.00	MIC (Haemophilus influenzae): > 64 µg/mL; MIC (Citrobacter freundii): > 64 µg/mL; MIC (Bacteroides fragilis): > 64 µg/mL; MIC (Enterococcus faecalis): > 64 µg/mL; MIC (Cutibacterium acnes): > 64 µg/mL; MIC (Streptococcus pneumoniae): 4 µg/mL (≈ 12.5 µM); MIC [12]: > 64 µg/mL; MIC (Staphylococcus aureus): > 64 µg/mL; MIC (Streptococcus pyogenes): > 64 µg/mL; MIC (Escherichia coli): > 64 µg/mL; MIC (Enterococcus faecium): > 64 µg/mL; MIC (Enterobacter cloacae): > 64 µg/mL; MIC (Candida albicans): > 64 µg/mL
